Assay results taken from ChEMBL document CHEMBL3046421, “Transition metals in organic synthesis - Part 83#: Synthesis and pharmacological potential of carbazoles” (Med Chem Res, 2008).
Converted amounts (≈) assume the structure as drawn.

Assays:
[1] = tested on: Vero; assay: Cytotoxicity against Chlorocebus aethiops (African green monkey) Vero cells; assay type: cell-based; settings: Chlorocebus sabaeus
[2] = Selectivity index, ratio of IC50 for african green monkey Vero cells to MIC90 for Mycobacterium tuberculosis H37Rv; assay type: toxicity, cell-based; settings: read-out: Selectivity Index
[3] = tested on: Mycobacterium tuberculosis; assay: Antimycobacterial activity against Mycobacterium tuberculosis H37Rv; assay type: functional
[4] = tested on: Mycobacterium tuberculosis; assay: Antimycobacterial activity against Mycobacterium tuberculosis H37Rv by microplate alamar blue assay; assay type: functional
[5] = target: T1, Polyunsaturated fatty acid 5-lipoxygenase (Rattus norvegicus, UniProt P12527); assay: Inhibition of Rattus norvegicus (rat) 5-lipoxygenase
T1 sequence (P12527 whole entry): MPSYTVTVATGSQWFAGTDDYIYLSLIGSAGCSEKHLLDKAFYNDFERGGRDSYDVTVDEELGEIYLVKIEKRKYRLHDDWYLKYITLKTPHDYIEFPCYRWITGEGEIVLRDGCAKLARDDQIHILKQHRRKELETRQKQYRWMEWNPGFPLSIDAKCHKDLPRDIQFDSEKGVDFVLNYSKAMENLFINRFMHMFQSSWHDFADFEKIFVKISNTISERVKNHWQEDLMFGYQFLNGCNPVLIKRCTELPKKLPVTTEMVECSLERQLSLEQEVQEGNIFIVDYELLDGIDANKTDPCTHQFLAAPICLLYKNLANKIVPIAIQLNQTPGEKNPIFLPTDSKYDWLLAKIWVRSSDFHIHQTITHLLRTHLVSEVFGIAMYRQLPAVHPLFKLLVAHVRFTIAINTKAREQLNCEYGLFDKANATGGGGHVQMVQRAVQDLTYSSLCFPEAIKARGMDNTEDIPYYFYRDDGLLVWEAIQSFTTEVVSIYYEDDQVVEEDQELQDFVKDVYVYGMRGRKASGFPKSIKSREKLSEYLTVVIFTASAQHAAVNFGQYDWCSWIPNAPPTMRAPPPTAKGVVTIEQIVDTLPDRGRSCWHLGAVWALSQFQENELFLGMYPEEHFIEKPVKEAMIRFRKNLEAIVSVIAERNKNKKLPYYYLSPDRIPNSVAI

[6] = tested on: Brain; assay: Inhibition of free-radical-induced lipid peroxidation in Rattus norvegicus (rat) brain homogenates; assay type: functional, tissue-based
[7] = tested on: Mycobacterium tuberculosis; assay: Antimycobacterial activity against Mycobacterium tuberculosis H37Ra; assay type: functional
[8] = tested on: Plasmodium falciparum; assay: Antiplasmodial activity against Plasmodium falciparum; assay type: functional, organism-based

## COc1ccc2[nH]c3ccc(C=O)cc3c2c1
[1]
  IC50: > 128 µM
[2]
  selectivity ratio: > 1.3
[3]
  MIC90: 15.6 µg/mL (≈ 69.3 µM)
[4]
  MIC90: 99 µM (≈ 22.3 µg/mL)

## COC(=O)c1ccc2[nH]c3ccc(OC)cc3c2c1
[1]
  IC50: > 128 µM
[2]
  selectivity ratio: > 4
[4]
  MIC90: 32 µM (≈ 8.17 µg/mL)

## COc1c(C)c(C[C@@H](C)OC(C)=O)c2[nH]c3ccc(Br)cc3c2c1OC(C)=O
[1]
  IC50: 25 µM
[2]
  selectivity ratio: 0.5
[4]
  MIC90: 55 µM (≈ 24.7 µg/mL)

## COc1ccc2c(c1)[nH]c1cc(OC)c(C)cc12
[1]
  IC50: > 128 µM
[4]
  MIC90: > 128 µM

## Cc1c(O)cc2c([nH]c3c(O)ccc(CO)c32)c1C1OC1(C)CCC(C)C (racemic) [RAC-EPOCARBAZOLIN A]
[5]
  IC50: 2.4 µM

## COC1=C(C)C(=O)c2[nH]c3ccccc3c2C1=O [3-METHOXY-2-METHYLCARBAZOLE-1,4-QUINONE]
[1]
  IC50: > 128 µM
[2]
  selectivity ratio: > 16
[4]
  MIC90: 8 µM (≈ 1.93 µg/mL)

## COc1ccc2[nH]c3ccc(C=O)cc3c2c1Br [5-BROMO-3-FORMYL-6-METHOXYCARBAZOLE]
[1]
  IC50: 78 µM
[2]
  selectivity ratio: < 0.6
[4]
  MIC90: > 128 µM

## COc1ccc2c(c1)[nH]c1ccc(C)cc12 [7-METHOXY-3-METHYLCARBAZOLE]
[4]
  MIC90: > 128 µM

## COc1c(C)c(C[C@@H](C)O)c2[nH]c3ccc(CC=C(C)C)cc3c2c1O [(R)-(-)-NEOCARAZOSTATIN B]
[6]
  IC50: 0.39 µM

## COC(=O)c1ccc2[nH]c3cc(OC)ccc3c2c1 [CLAUSINE C]
[4]
  MIC90: > 128 µM

## COc1ccc2c(c1)[nH]c1cc(OC)c(C(=O)O)cc12 [CLAUSINE K]
[1]
  IC50: 25 µM
[2]
  selectivity ratio: < 0.2
[7]
  MIC90: 100 µg/mL (≈ 369 µM)
[4]
  MIC90: > 128 µM

## COC(=O)c1ccc2[nH]c3cc(O)ccc3c2c1 [CLAUSINE M]
[1]
  IC50: 35 µM
[2]
  selectivity ratio: 1.8
[4]
  MIC90: 19 µM (≈ 4.58 µg/mL)

## COc1ccc2c(c1)[nH]c1ccc(C(=O)O)cc12 [CLAUSINE N]
[4]
  MIC90: > 128 µM

## O=Cc1cc2c(cc1O)[nH]c1cc(O)ccc12 [CLAUSINE O]
[1]
  IC50: 114 µM
[2]
  selectivity ratio: 1.3
[4]
  MIC90: 89 µM (≈ 20.2 µg/mL)

## COC(=O)c1cc2c(cc1OC)[nH]c1cc(OC)ccc12 [CLAUSZOLINE C]
[8]
  IC50: 5.5 µg/mL (≈ 19.3 µM)

## COc1ccc2c(c1)[nH]c1ccc(C=O)cc12 [CLAUSZOLINE K]
[4]
  MIC90: > 128 µM

## CC[C@H](C)CCC1(C)OC1c1c(C)c(O)cc2c1[nH]c1c(O)ccc(CO)c12 (stereo partly specified) [EPOCARBAZOLIN B]
[5]
  IC50: 2.6 µM

## Cc1ccc2[nH]c3ccc4occc4c3c2c1 [EUSTIFOLINE-D]
[1]
  IC50: > 128 µM
[4]
  MIC90: > 128 µM

## COc1ccc2[nH]c3ccc(C)cc3c2c1 [GLYCOZOLINE]
[4]
  MIC90: > 128 µM

## Cc1ccc2[nH]c3ccc(O)cc3c2c1 [GLYCOZOLININE]
[1]
  IC50: 57 µM
[2]
  selectivity ratio: 0.5
[4]
  MIC90: 123 µM (≈ 24.3 µg/mL)

## NNC(=O)c1ccncc1 [ISONIAZID]
[1]
  IC50: > 128 µM
[2]
  selectivity ratio: > 320
[4]
  MIC90: 0.4 µM (≈ 0.0549 µg/mL)

## COc1ccc2c(c1)[nH]c1cc(OC)c(C=O)cc12 [LANSINE]
[1]
  IC50: 96 µM
[2]
  selectivity ratio: < 0.8
[4]
  MIC90: > 128 µM

## CC(C)=CCc1c(O)ccc2[nH]c3ccc(C=O)cc3c12 [MICROMELINE]
[3]
  MIC90: 31.5 µg/mL (≈ 113 µM)
[4]
  MIC90: > 128 µM

## CO[C@H]1/C=C/O[C@@]2(C)Oc3c(C)c(O)c4c(O)c(c(/C=N/N5CCN(C)CC5)c(O)c4c3C2=O)NC(=O)/C(C)=C\C=C\[C@H](C)[C@H](O)[C@@H](C)[C@@H](O)[C@@H](C)[C@H](OC(C)=O)[C@@H]1C [RIFAMPIN]
[1]
  IC50: 105 µM
[2]
  selectivity ratio: 1170
[4]
  MIC90: 0.09 µM (≈ 0.0741 µg/mL)

## CC(C)=CCc1cc2c(cc1O)[nH]c1ccc(C)cc12 [SIAMENOL]
[1]
  IC50: 15 µM
[2]
  selectivity ratio: 0.7
[4]
  MIC90: 22 µM (≈ 5.84 µg/mL)
